Measured values taken from patent publication US20230173089A1, “Q-ER PEPTIDE” (Biotempt B.V., priority 2019, published 2023).

Legend:
mTOR = conditions: cited from earlier work; for activity as activators of mTOR or inhibitors of autophagy compared with other amino acids: alone or in combination
Human monocytes = assay: monocyte chemotaxis in 48-well microchemotaxis chamber; assay type: cell-based; conditions: for chemotactic activity at a stated concentration: 0.1 mmol/L; for induction of monocyte chemotaxis: 10-9 to 10-5 mol/L; for peptide derived chemotactic activity under competition with VGVAPG: competition with SEQ ID NO:19; for monocyte chemotaxis in the presence of glucose, fructose, or mannose: control sugars; for monocyte chemotaxis in the presence of lactose: lactose dissociates the 67-kD ERC; for chemotactic response to f-MLF after preincubation of monocytic cells with peptide: preincubation 30 minutes; for chemotactic potency compared with f-MLF: same concentration of f-MLF
Method: Human monocytes are isolated from freshly drawn blood of healthy volunteers using serial […] gradient centrifugation, as described elsewhere. Cells are cultured for 16 hours in RPMI-1640 media supplemented with 0.5% human serum to become quiescent after isolation. Purity of the cells is >95% as determined by flow cytometry analysis. Monocyte chemotaxis is assayed in a 48-well microchemotaxis chamber (Neuroprobe, Gaithersburg, MD) in serum-free media. Wells in the upper and lower chamber are separated by a polyvinylpyrrolidone-free polycarbonate membrane (pore size 5 µm; Costar). Freshly isolated monocytes at a density of 5 × 10^5/mL are incubated for 2.5 hours with recombinant C-peptide (Sigma), before migrated cells on the bottom face of the filter are stained and counted under the light microscope. Maximal chemotactic activity is measured with […] N -formyl-methionyl-leucyl-phenylalanine (f-MLF; Sigma Chemical Co), and checkerboard analysis is used to distinguish chemotaxis from chemokinesis.
Chemotaxis is tested with SEQ ID NO:12 ([…]), SEQ ID NO:11 ([…]), SEQ ID NO:24 ([…]) or SEQ ID NO:25 ([…]). Exposure of cells to lactose is used to specifically dissociate the 67-kD ERC. Controls for lactose included glucose, fructose, and mannose, none of which affect the 67-kD ERC. In each case, monocytes cells are exposed to the relevant concentrations of SEQ ID NO:12 ([…]), SEQ ID NO:11 ([…]), SEQ ID NO:24 ([…]) or SEQ ID NO:25 ([…]) (10-9 to 10-5 mol/L), for 30 minutes before the chemotaxis assays are started. […] Monocytes in the upper wells of the assay chamber are exposed to varying concentrations of SEQ ID NO:12 ([…]), SEQ ID NO:11 ([…]), SEQ ID NO:24 ([…]) or SEQ ID NO:25 ([…]) for 30 minutes before stimulation by SEQ ID NO:19 (VGVAPG) (0.1 nmol/L - 10 nmol/L) in the lower wells. […] SEQ ID NO:12 ([…]), SEQ ID NO:11 ([…]), SEQ ID NO:24 ([…]), or SEQ ID NO:25 ([…]) derived chemotactic activity is eliminated by competition with Val-Gly-Val-[…]-Pro-Gly (SEQ ID NO:19 (VGVAPG)), a repetitive peptide found in human elastin that binds to cellular elastin receptors. Monocyte chemotaxis in response to both SEQ ID NO:19 (VGVAPG) or SEQ ID NO:12 ([…]), SEQ ID NO:11 ([…]), SEQ ID NO:24 ([…]), or SEQ ID NO:25 ([…]) is abolished in the presence of lactose, a galactosugar that specifically dissociates the 67-kD ERC, but it is unaffected by glucose, fructose, or mannose.

[1] = system: non-obese diabetic (NOD) mouse; assay: type 1 diabetes development in NOD mice; assay type: in vivo; conditions: 250 µg i.p. three times per week, female NOD mice from 14 weeks, max five weeks
Description: The non-obese diabetic (NOD) mouse spontaneously develops type 1 diabetes (T1D) and has served as a model for understanding the genetic and immunological basis, and treatment, of T1D. NOD mice are used in these studies. Most diabetic NOD mice suffer from insulin deficiency diabetes, with the underlying cause of the pancreatic beta-cell loss or destruction most likely a result of an inflammatory process in the micro-vasculature surrounding endocrine beta-cell tissues and genetically accelerated autoimmunity is suspected. Diabetes is assessed by measurement of the venous blood glucose level using an Abbott Medisense Precision glucometer. Mice are considered diabetic after two consecutive glucose measurements ≥11 mmol/l (200 mg/dl). Onset of diabetes is dated from the first consecutive reading of ≥11 mmol/l. In vivo treatment: groups of 14 weeks-old female NOD mice (n=12 per group) are treated with synthetic peptide SEQ ID NO:5 (AQGVAPG), SEQ ID NO:6 (LQGVAPG), SEQ ID NO:7 (AQGVLPG), SEQ ID NO:8 (LQGVLPG) or vehicle (PBS), respectively. Treatment is done by injecting 250 µg peptide diluted in PBS three times per week intraperitoneally (i.p.). Control mice are treated with PBS only. The treatment is discontinued when all PBS treated NOD mice in the experiment have developed diabetes. This is generally at the age of 19 weeks. The peptide and PBS treatments are done for a maximum of five weeks. In instances of hyperglycaemia of ≥20 mmol/l the mice are killed to avoid prolonged discomfort. The remainder mice are kept alive up to the age of 35 weeks without any further treatment.

[2] = system: Wistar rats with hemorrhagic shock; assay: hemorrhagic shock and resuscitation in rats (Example 15, SIRS); assay type: in vivo, rat; conditions: single injection 30 minutes after induction of hemorrhagic shock
Method: Severe hemorrhagic shock followed by resuscitation induces a massive inflammatory response, which may culminate into systemic inflammatory response syndrome, multiple organ dysfunction syndrome and finally death. Treatments that effectively prevent this inflammation are limited so far. […] Considering this powerful anti-inflammatory effect, it was investigated whether administration of 0.5 ml i.p. of synthetic heptapeptide SEQ ID NO:5 (AQGVAPG), SEQ ID NO:6 (LQGVAPG), SEQ ID NO:7 (AQGVLPG), SEQ ID NO:8 (LQGVLPG), dissolved in 0.9% NaCl at a concentration of 25 mg/ml, or vehicle (0.9% NaCl), respectively, during the SIRS-phase of hemorrhagic shock, is able to attenuate the inflammatory response associated with this condition.
Hemorrhagic shock is induced in groups of 6 rats for 60 minutes by blood withdrawal until a mean arterial pressure of 40 mmHg is reached. Thirty minutes after induction of hemorrhagic shock, rats received a single injection with one of synthetic heptapeptide SEQ ID NO:5 (AQGVAPG), SEQ ID NO:6 (LQGVAPG), SEQ ID NO:7 (AQGVLPG), SEQ ID NO:8 (LQGVLPG), or 0.9% NaCl solution, as control. Treatment with synthetic heptapeptide SEQ ID NO:5 (AQGVAPG), SEQ ID NO:6 (LQGVAPG), SEQ ID NO:7 (AQGVLPG), SEQ ID NO:8 (LQGVLPG) prevents systemic release of TNF-α and IL-6 and is associated with reduced TNF-α, IL-6 and E-selectin mRNA transcript levels in the liver, with reduced neutrophil infiltration into the liver and is associated with reduced liver damage.
Animals. Adult male specific pathogen-free Wistar rats weighing 350-400 g are used. Rats are housed under barrier conditions at 25° C. with a twelve-hour light/dark cycle, and are allowed food and water ad libitum. The experimental protocol adheres to the rules laid down in national law that serves the implementation of “Guidelines on the protection of experimental animals” by the Council of Europe (1986), Directive 86/609/EC. hCG-related synthetic oligopeptides. Rats are food deprived overnight before the start of the experiment, but are allowed water ad libitum. Rats are anesthetized using a mixture of N2 O/O2 /isoflurane (Pharmachemie B.V., Haarlem, The Netherlands). Body temperature is continuously maintained at 37.5° C. by placing the rats on a thermo controlled “half-pipe” (UNO, Rotterdam, The Netherlands). Endotracheal intubation is performed, and rats are ventilated at 60 breaths per minute with a mixture of N2 O/O2 /isoflurane. Polyethylene tubes (PE-50, Becton Dickinson; St. Michielsgestel, The Netherlands) are flushed with heparin and placed via the right carotid artery in the aorta and in the right internal jugular vein. A 5 cm midline laparotomy is performed and a supra pubic catheter is inserted to monitor urine production. Hemorrhagic shock is induced by blood withdrawal, reducing the circulating blood volume until a mean arterial pressure (MAP) of 40 mmHg is reached. This level of hypotension is maintained for 60 minutes. Thirty minutes after the induction of hemorrhagic shock, rats received a single intravenous (IV) bolus injection of heptapeptide solution or vehicle. Sixty minutes after induction of hemorrhagic shock, rats are resuscitated by four times their shed blood volume over a period of 30 minutes to normalize the MAP, and monitored for another 120 minutes after which they are sacrificed. The rats receive no heparin before or during the experiment. Sham animals are subjected to the same surgical procedure as the hemorrhagic shock animals, but without blood withdrawal and administration of heptapeptide.

## NCCCC[C@H](N)C(=O)O [L-Lysine]
mTOR
  activity as activators of mTOR or inhibitors of autophagy compared with other amino acids: no or opposite effects

## N[C@@H](CO)C(=O)O [L-Serine]
mTOR
  activity as activators of mTOR or inhibitors of autophagy compared with other amino acids: no or opposite effects

## LQGVQPGQ (Immunomodulatory peptide) [SEQ ID NO:24]
Human monocytes
  chemotactic activity at a stated concentration: good activity
  induction of monocyte chemotaxis: induce chemotaxis in a concentration-dependent manner
  peptide derived chemotactic activity under competition with VGVAPG: eliminated
  monocyte chemotaxis in the presence of glucose, fructose, or mannose: unaffected
  monocyte chemotaxis in the presence of lactose: abolished
  chemotactic response to f-MLF after preincubation of monocytic cells with peptide: does not alter
  chemotactic potency compared with f-MLF: considerably more potent

## AQGVQPGQ (Immunomodulatory peptide) [SEQ ID NO:25]
Human monocytes
  chemotactic activity at a stated concentration: good activity
  induction of monocyte chemotaxis: induce chemotaxis in a concentration-dependent manner
  peptide derived chemotactic activity under competition with VGVAPG: eliminated
  monocyte chemotaxis in the presence of glucose, fructose, or mannose: unaffected
  monocyte chemotaxis in the presence of lactose: abolished
  chemotactic response to f-MLF after preincubation of monocytic cells with peptide: does not alter
  chemotactic potency compared with f-MLF: considerably more potent

## CC(C)C[C@H](N)C(=O)O [L-Leucine]
mTOR
  activity as activators of mTOR or inhibitors of autophagy compared with other amino acids: more potent
  mTOR associated autophagic inhibitory effects on human cells: most prominent

## N[C@@H](Cc1ccccc1)C(=O)O [L-Phenylalanine]
mTOR
  activity as activators of mTOR or inhibitors of autophagy compared with other amino acids: no or opposite effects

## NCC(=O)O [L-Glycine]
mTOR
  activity as activators of mTOR or inhibitors of autophagy compared with other amino acids: more potent
  amino-acid-stimulated mTOR complex 1 activation: improves

## AQGVLPGQ (Immunomodulatory peptide) [SEQ ID NO:11]
Human monocytes
  chemotactic activity at a stated concentration: good activity
  induction of monocyte chemotaxis: induce chemotaxis in a concentration-dependent manner
  peptide derived chemotactic activity under competition with VGVAPG: eliminated
  monocyte chemotaxis in the presence of glucose, fructose, or mannose: unaffected
  monocyte chemotaxis in the presence of lactose: abolished
  chemotactic response to f-MLF after preincubation of monocytic cells with peptide: does not alter
  chemotactic potency compared with f-MLF: considerably more potent

## N[C@@H](CCC(=O)O)C(=O)O [L-Glutamic Acid]
mTOR
  activity as activators of mTOR or inhibitors of autophagy compared with other amino acids: no or opposite effects

## VGVAPG (Immunomodulatory peptide) [SEQ ID NO:19, reference compound]
Human monocytes; 0.1 nmol/L - 10 nmol/L in the lower wells
  monocyte migration: concentration-dependent increase
Human monocytes
  monocyte chemotaxis in the presence of glucose, fructose, or mannose: unaffected
  monocyte chemotaxis in the presence of lactose: abolished

## LQGVAPG (Immunomodulatory peptide) [SEQ ID NO:6]
[1]
  beta-cell failure with diabetes development (occurrence of diabetes after the age of 17 weeks): significantly reduces
[2]
  TNF-α, IL-6 and E-selectin mRNA transcript levels in the liver: reduced
  liver damage: reduced
  neutrophil infiltration into the liver: reduced
  systemic release of TNF-α and IL-6: prevents

## C[C@@H](O)[C@H](N)C(=O)O [L-Threonine]
mTOR
  activity as activators of mTOR or inhibitors of autophagy compared with other amino acids: no or opposite effects

## CC[C@H](C)[C@H](N)C(=O)O [L-Isoleucine]
mTOR
  activity as activators of mTOR or inhibitors of autophagy compared with other amino acids: more potent

## C[C@H](N)C(=O)O [L-Alanine]
mTOR
  activity as activators of mTOR or inhibitors of autophagy compared with other amino acids: more potent
  mTOR associated autophagic inhibitory effects on human cells: most prominent

## CC(C)[C@H](N)C(=O)O [L-Valine]
mTOR
  activity as activators of mTOR or inhibitors of autophagy compared with other amino acids: more potent

## N[C@@H](Cc1ccc(O)cc1)C(=O)O [L-Tyrosine]
mTOR
  activity as activators of mTOR or inhibitors of autophagy compared with other amino acids: no or opposite effects

## LQGVLPGQ (Immunomodulatory peptide) [SEQ ID NO:12]
Human monocytes
  chemotactic activity at a stated concentration: good activity
  induction of monocyte chemotaxis: induce chemotaxis in a concentration-dependent manner
  peptide derived chemotactic activity under competition with VGVAPG: eliminated
  monocyte chemotaxis in the presence of glucose, fructose, or mannose: unaffected
  monocyte chemotaxis in the presence of lactose: abolished
  chemotactic response to f-MLF after preincubation of monocytic cells with peptide: does not alter
  chemotactic potency compared with f-MLF: considerably more potent

## N=C(N)NCCC[C@H](N)C(=O)O [L-Arginine]
mTOR
  activity as activators of mTOR or inhibitors of autophagy compared with other amino acids: more potent

## O=C(O)[C@@H]1CCCN1 [L-Proline]
mTOR
  activity as activators of mTOR or inhibitors of autophagy compared with other amino acids: more potent
  mTOR associated autophagic inhibitory effects on human cells: most prominent

## CSCC[C@H](N)C(=O)O [L-Methionine]
mTOR
  activity as activators of mTOR or inhibitors of autophagy compared with other amino acids: no or opposite effects
